What was measured:
[1] = test system: rat spinal nerve ligation (SNL)/Chung model of neuropathic pain; test: Spinal nerve ligation (SNL)/Chung model, tactile allodynia, electronic von Frey test on lesioned paw; type: in vivo
Procedure: (§1) Objective: The efficacy of Compound A was assessed using the rat spinal nerve ligation (SNL)/Chung model of neuropathic pain. The SNL model in rats was developed as described previously (Chung J M, Kim H K, Chung K. “Segmental spinal nerve ligation model of neuropathic pain.” Methods Mol. Med. 99 (2004) 35-45).
(§2) Study Design. Briefly, on Day 0, von Frey and cold plate tests were used for baseline measurements of tactile and cold allodynia respectively. Post-baseline measurements, rats (171-209 g male Sprague Dawley) were anesthetized and an incision at the L4-S2 level was performed to expose the left L5 nerve. A ligature was tied tightly around the L5 nerve (Chung et al.; R. Dost et al., “The anti-hyperalgesic activity of Retigabine is mediated by KCNQ potassium channel activation.” Naunyn-Schmiedeberg's Arch. Pharmacol. 369 (2004) 382-390; Gordon Blackburn-Munro et al., “The anticonvulsant retigabine attenuates nociceptive behaviors in rat models of persistent and neuropathic pain.” Eur. J Pharmacol. 460 (2003) 109-116; and Wu Y J et al., “Discovery of (S,E)-3-(2-fluorophenyl)-N-(1-(3-(pyridin-3-yloxy)phenyl)ethyl)-acrylamide as a potent and efficacious KCNQ2 (Kv7.2) opener for the treatment of neuropathic pain.” Bioorg Med. Chem. Lett. 23 (2013) 6188-91). The wound was then sutured and the rats were allowed to recover. On Day 13, post-surgery baselines for tactile and cold allodynia were measured to verify neuropathic pain. Animals were assigned to treatment groups based on the post-surgery baseline score.
(§3) Dosing: For efficacy testing, Compound A was dosed orally once a day for 5 consecutive days from Day 14-18.
Rats were placed under an inverted acrylic plastic box on a grid floor. The tip of an electronic von Frey probe was then applied with increasing force to the surgery hind paw and the force required to induce paw-withdrawal was automatically recorded. The procedure was carried out 3 times and the mean paw withdrawal force was calculated. The experimenter was double blinded to treatment.

[2] = Body weight of SNL rats over the duration of testing; type: in vivo, rat
Procedure: as §2, §3

[3] = test system: rat spinal nerve ligation (SNL)/Chung model of neuropathic pain; test: Spinal nerve ligation (SNL)/Chung model, thermal allodynia, cold plate test on lesioned paw; type: in vivo
Procedure: as §1
Study Design. Briefly, on Day 0, von Frey and cold plate tests were used for baseline measurements of tactile and cold allodynia respectively. Post-baseline measurements, rats (171-209 g male Sprague Dawley) were anesthetized and an incision at the L4-S2 level was performed to expose the left L5 nerve. […] The wound was then sutured and the rats were allowed to recover. On Day 13, post-surgery baselines for tactile and cold allodynia were measured to verify neuropathic pain. Animals were assigned to treatment groups based on the post-surgery baseline score.
as §3
The cold plate apparatus was maintained at 4±1° C. and was surrounded by an acrylic glass enclosure. Rats were placed on the plate for a period of 5 minutes. The latency to 1st paw-withdrawal, total number of paw withdrawals, and total duration of withdrawal responses were recorded for the surgery hind paw.

[4] = Day 14, test 1 h after administration, 128 mg/kg p.o.
[5] = Day 18, test 1 h after administration, 128 mg/kg p.o. once on Day 14 and on Day 18
[6] = Day 18 at 2 h, 20 mg/kg p.o. once daily Day 14-18

CN1CC[C@]23c4c5ccc(O)c4O[C@H]2[C@@H](O)C=C[C@H]3[C@H]1C5.Cl [Morphine, Morphine hydrochloride, reference compound]
Force inducing paw-withdrawal (g), Delta from baseline compared with Vehicle (p.o.), Δ [1, 4]: +27.4 g
Force inducing paw-withdrawal (g), Delta from baseline, Mean ± s.e.m. [1, 4]: +27.7 ± 5.6 g
Force inducing paw-withdrawal (g), Mean ± s.e.m. [1, 4]: 50.6 ± 5.0 g
Force inducing paw-withdrawal (g), Delta from baseline compared with Vehicle (p.o.), Δ [1, 5]: +24.3 g
Force inducing paw-withdrawal (g), Delta from baseline, Mean ± s.e.m. [1, 5]: +27.1 ± 4.6 g
Force inducing paw-withdrawal (g), Mean ± s.e.m. [1, 5]: 50.0 ± 4.5 g
Body weight (g) (mean ± s.e.m.) ([2]; Day 14, 128 mg/kg p.o. once on Day 14 and on Day 18): 295.9 ± 4.6 g
Body weight (g) (mean ± s.e.m.) ([2]; Day 15, 128 mg/kg p.o. once on Day 14 and on Day 18): 312.8 ± 5.5 g
Body weight (g) (mean ± s.e.m.) ([2]; Day 16, 128 mg/kg p.o. once on Day 14 and on Day 18): 302.0 ± 5.4 g
Body weight (g) (mean ± s.e.m.) ([2]; Day 17, 128 mg/kg p.o. once on Day 14 and on Day 18): 298.9 ± 5.4 g
Body weight (g) (mean ± s.e.m.) ([2]; Day 18, 128 mg/kg p.o. once on Day 14 and on Day 18): 306.7 ± 5.2 g
Latency to first paw-withdrawal (s), Mean ± s.e.m. [3, 4]: 201.3 ± 35.8 s
Latency to first paw-withdrawal, compared with Vehicle (p.o.), Δ% [3, 4]: +55%
Number of withdrawal responses, Mean ± s.e.m. [3, 4]: 7.9 ± 2.8
Number of withdrawal responses, compared with Vehicle (p.o.), Δ% [3, 4]: −22%
Latency to first paw-withdrawal (s), Mean ± s.e.m. [3, 5]: 235.8 ± 33.2 s
Latency to first paw-withdrawal, compared with Vehicle (p.o.), Δ% [3, 5]: +150%
Number of withdrawal responses, Mean ± s.e.m. [3, 5]: 4.6 ± 2.8
Number of withdrawal responses, compared with Vehicle (p.o.), Δ% [3, 5]: −58%

CCOC(=O)Nc1ccc(NCc2ccc(F)cc2)cc1N [Retigabine, reference compound]
Force inducing paw-withdrawal (g), Delta from baseline compared with Vehicle (p.o.), Δ ([1]; Day 14 at 2 h, 20 mg/kg p.o.): +4.0 g
Force inducing paw-withdrawal (g), Delta from baseline, Mean ± s.e.m. ([1]; Day 14 at 2 h, 20 mg/kg p.o.): +4.0 ± 2.2 g
Force inducing paw-withdrawal (g), Mean ± s.e.m. ([1]; Day 14 at 2 h, 20 mg/kg p.o.): 26.5 ± 2.5 g
Force inducing paw-withdrawal (g), Delta from baseline compared with Vehicle (p.o.), Δ [1, 6]: +6.4 g
Force inducing paw-withdrawal (g), Delta from baseline, Mean ± s.e.m. [1, 6]: +9.2 ± 2.1 g
Force inducing paw-withdrawal (g), Mean ± s.e.m. [1, 6]: 31.8 ± 2.2 g
Body weight (g) (mean ± s.e.m.) ([2]; Day 14, 20 mg/kg p.o. once daily Day 14-18): 300.8 ± 4.8 g
Body weight (g) (mean ± s.e.m.) ([2]; Day 15, 20 mg/kg p.o. once daily Day 14-18): 312.6 ± 5.1 g
Body weight (g) (mean ± s.e.m.) ([2]; Day 16, 20 mg/kg p.o. once daily Day 14-18): 321.1 ± 5.2 g
Body weight (g) (mean ± s.e.m.) ([2]; Day 17, 20 mg/kg p.o. once daily Day 14-18): 330.6 ± 5.3 g
Body weight (g) (mean ± s.e.m.) ([2]; Day 18, 20 mg/kg p.o. once daily Day 14-18): 336.8 ± 5.7 g
Latency to first paw-withdrawal (s), Mean ± s.e.m. ([3]; Day 14 at 2 h, 20 mg/kg p.o.): 272.7 ± 20.1 s
Latency to first paw-withdrawal, compared with Vehicle (p.o.), Δ% ([3]; Day 14 at 2 h, 20 mg/kg p.o.): +110%
Number of withdrawal responses, Mean ± s.e.m. ([3]; Day 14 at 2 h, 20 mg/kg p.o.): 1.5 ± 1.3
Number of withdrawal responses, compared with Vehicle (p.o.), Δ% ([3]; Day 14 at 2 h, 20 mg/kg p.o.): −85%
Total duration of withdrawal responses (s), Mean ± s.e.m. ([3]; Day 14 at 2 h, 20 mg/kg p.o.): 0.3 ± 0.3 s
Total duration of withdrawal responses, compared with Vehicle (p.o.), Δ% ([3]; Day 14 at 2 h, 20 mg/kg p.o.): −86%
Latency to first paw-withdrawal (s), Mean ± s.e.m. [3, 6]: 209.3 ± 36.1 s
Latency to first paw-withdrawal, compared with Vehicle (p.o.), Δ% [3, 6]: +122%
Number of withdrawal responses, Mean ± s.e.m. [3, 6]: 3.4 ± 1.3
Number of withdrawal responses, compared with Vehicle (p.o.), Δ% [3, 6]: −69%
Total duration of withdrawal responses (s), Mean ± s.e.m. [3, 6]: 27.3 ± 23.5 s
Total duration of withdrawal responses, compared with Vehicle (p.o.), Δ% [3, 6]: +153%
